Assay results reported in patent publication US20250228818A1, “PHARMACEUTICAL COMBINATION CONTAINING CAPSID PROTEIN INHIBITOR AND REVERSE TRANSCRIPTASE INHIBITOR” (priority 2021, published 2025).

Test system: rAAV8-1.3HBV
Experiment: AAV/HBV mouse model experiment (serum HBV DNA)
Assay type: in vivo, mouse (male, C57BL/6)
Details: mean ± standard error; for HBV DNA in mouse serum, day 7 / HBV DNA in mouse serum, day 14 / HBV DNA in mouse serum, day 21 / HBV DNA in mouse serum, day 28: i.g. QD day 0-27; for HBV DNA in mouse serum, day −2: day −2 (before first administration)
Procedure: rAAV8-1.3HBV (source: Beijing FivePlus Molecular Medicine Institute, titer: 1×10^12 v·g/mL) was used to establish an AAV/HBV mouse model (species: male, C57BL/6), and the mice were randomized into groups.
The compound of formula I was dissolved in DMSO, and PEG-400 was added to prepare a 1 mg/mL clear solution, which was then gradually diluted with the vehicle to 0.3 mg/mL, 0.1 mg/mL, and 0.03 mg/mL. After preparation, the dilutions were stored at room temperature.
Entecavir was dissolved in DMSO to prepare a 1 mg/mL solution, which was then gradually 1000-fold diluted with normal saline (NS) to 0.001 mg/mL. The dilution was aliquoted at 1 mL/tube to serve as a stock solution and stored in a freezer at −20° C. Each day, one tube was taken, and the solution in the tube was 10-fold diluted with NS to achieve the required administration concentration of 0.0001 mg/mL for daily administration.
rAAV8-1.3HBV (type D, ayw) was purchased from Beijing FivePlus Gene Technology Co., Ltd., with a titer of 1×10^12 v·g/mL.
Hepatitis B virus nucleic acid assay kit (Sansure Biotech Inc.), high-speed refrigerated centrifuge (Sorvall Legend), and real-time fluorescent quantitative PCR instrument (TL988).
AAV-HBV mouse model: rAAV8-1.3HBV was prepared into a solution with a concentration of 5×10^11 v·g/mL by sterile PBS in advance before injection. Each mouse was injected with 200 μL of the solution via the tail vein, with 1×10^11 v·g per mouse.
Blood sampling before grouping: On day 14 after the virus injection, all infected mice were subjected to blood sampling (approximately 100 μL per mouse) via the orbital vein for serum collection. After the whole blood was left to stand at room temperature for 30 min, serum was collected by centrifugation at 3000 rpm at 4° C. for 10 min. The collected serum was stored at −80° C. for HBV DNA, HBeAg and HBsAg detection.
Compound treatment: All mice were subjected to intragastric administration with the solvent or the compound. The day of the first administration was set as day 0 of the experiment, and the duration of administration was from day 0 to day 27. Entecavir was administered once daily (QD), and the compound of formula I was administered […]. The administration volume was 10 mL/kg.
The experimental method referred to the instructions of the hepatitis B virus nucleic acid assay kit. 5 μL of the nucleic acid release agent was added into each PCR reaction tube, and then 5 μL of the test serum, a negative control, a positive control and a quantitative reference substance were added separately. The mixture was then lysed for 10 min, and then 40 μL of PCR-mix was added, achieving a total volume of 50 μL in the system. Reaction conditions: 50° C. for 2 min, 1 cycle; 94° C. for 5 min, 1 cycle; 94° C. for 15 s, 57° C. for 30 s, 45 cycles; 25° C. for 10 s, 1 cycle. 2.4. Results in Tables 4-1 and 4-2

[1] = compound of formula I 10 mg/kg (iv), with entecavir 0.001 mg/kg (vi)
[2] = entecavir 0.001 mg/kg (ii), compound of formula I 1 mg/kg (iii), both (v)
[3] = groups: entecavir 0.001 mg/kg (ii), compound of formula I 1 mg/kg (iii), both (v)

| SMILES | HBV DNA in mouse serum, day 7 [1] | HBV DNA in mouse serum, day 7 [2] | HBV DNA in mouse serum, day 14 [1] | HBV DNA in mouse serum, day 14 [2] | HBV DNA in mouse serum, day 21 [1] | HBV DNA in mouse serum, day 21 [2] | HBV DNA in mouse serum, day 28 [1] | HBV DNA in mouse serum, day 28 [2] | HBV DNA in mouse serum, day 35 (day 35 (administration ended day 27), compound of formula I 10 mg/kg (iv), with entecavir 0.001 mg/kg (vi)) | HBV DNA in mouse serum, day 42 (day 42 (administration ended day 27), compound of formula I 10 mg/kg (iv), with entecavir 0.001 mg/kg (vi)) | HBV DNA in mouse serum, day −2 (groups: compound of formula I 10 mg/kg (iv), with entecavir 0.001 mg/kg (vi)) | HBV DNA in mouse serum, day −2 [3] |
| --- | --- | --- | --- | --- | --- | --- | --- | --- | --- | --- | --- | --- |
| Cc1c(C(=O)Nc2ccc(F)c(C#N)c2)c(C)n(C)c1C(=O)C(=O)N[C@@H](C)C(F)(F)F [Compound of formula I, (S)—N-(3-cyano-4-fluorophenyl)-1,2,4-trimethyl-5-(2-oxo-2-((1,1,1-trifluoropropan-2-yl)amino)acetyl)-1H-pyrrole-3-carboxamide] | 4.72 ± 0.86 log10, copy/μL | 6.16 ± 0.36 log10, copy/μL | 3.97 ± 0.45 log10, copy/μL | 5.48 ± 0.34 log10, copy/μL | 3.97 ± 0.31 log10, copy/μL | 5.23 ± 0.33 log10, copy/μL | 3.75 ± 0.35 log10, copy/μL | 5.42 ± 0.38 log10, copy/μL | 3.77 ± 0.45 log10, copy/μL | 5.18 ± 0.74 log10, copy/μL | 7.97 ± 0.22 log10, copy/μL | 7.71 ± 0.27 log10, copy/μL |
| C=C1[C@H](CO)[C@@H](O)C[C@@H]1n1cnc2c(=O)[nH]c(N)nc21 [Entecavir, 2-amino-9-[(1S,3R,4S)-4-hydroxy-3-hydroxymethyl-2-methylenecyclopentyl]-1,9-dihydro-6H-purin-6-one, reference compound] | – | 5.17 ± 0.54 log10, copy/μL | – | 5.30 ± 0.30 log10, copy/μL | – | 5.22 ± 0.46 log10, copy/μL | – | 5.46 ± 0.45 log10, copy/μL | – | – | – | 7.78 ± 0.28 log10, copy/μL |
